Here are results for 23 compounds from patent US20050142581A1, “Microrna as ligands and target molecules” (priority 2003, published 2005).

Data set [1] relates to 27 nucleotide fragment of bacterial 16S ribosomal RNA incorporating the A-site. The data set is described as follows: ESI-FT-ICR mass spectrometry detection of non-covalent ligand complexes with 16S RNA fragment. The conditions noted are these: for ion abundance of binary complex relative to unbound 16S RNA: 200 μM ligand, 5 μM target 16S RNA fragment; for ion abundance of binary complex relative to unbound 16S RNA / relative binding affinity from comparison of ion abundance of binary complexes: mass spectrometry; for relative binding affinity from comparison of ion abundance of binary complexes: 16S RNA fragment; for mode of binding interaction of two ligands for the target RNA: ligand pair mixed with 5 μM 16S RNA fragment, presence and abundance of ternary complex. The format is binding. An excerpt: Ligands bind competitively for a target when the binding of one ligand prevents the binding of the other ligand is the result of the ligands binding to the target at the same location. In this situation, the mixture contains an equilibrium of two binary complexes, one of which being one ligand bound to the target and the other being the other ligand bound to the target. The ligand having the greater affinity for the target will predominate and thus have higher signal intensity for its binary complex with the target compared to the other ligand. Competitive binding interaction between two ligands is determined according to methods of the invention by analyzing the mixture by mass-spectrometry to detect the presence or lack of signal corresponding to a ternary complex where both ligands are bound to the target at the same time. The lack of signal for a ternary complex indicates a competitive binding interaction between the two ligands while the presence of the signal indicates a non-competitive interaction.
Ligands bind concurrently when the binding of one ligand to the target is unaffected by the binding of the other and is a consequence of the ligands binding to the target at distinct sites. […] The ligand having the greater affinity for the target will have higher signal intensity for its binary complex with the target compared to the other ligand. […] Particularly, the absolute ion abundance of the ternary complex (TL1L2) is compared to the relative ion abundance of the binary complexes (TL1 and TL2) which contribute to the formation of the ternary complex with respect to the unbound target (TL1×TL2/T). Since there are two binary complexes contributing the formation of the ternary complex, the comparison is with the sum of the two contributing binary complexes i.e. TL1×TL2/T+TL2×TL1/T. If the absolute ion abundance of the ternary complex is equal to the sum of the relative ion abundance of the contributing binary complexes, then the two ligands concurrently bind to the target substrate. […] The relative ion abundance of the ternary complex (16S+2−DOS+DT) with respect to the unbound 16S target RNA (16S) is equal, within limits of error, to the sum of the relative ion abundance of the contributing binary complex ((16S+DT)×(16S+2−DOS)) with respect to the unbound target (16S) and the contributing binary complex ((16S+2−DOS)+(16S+DT)) with respect to the unbound target (16S).
All MS experiments were performed by using an Apex II 70e ESI-FT-ICR MS (Bruker Daltonics, Billerica, Mass.) with an actively shielded 7 tesla superconducting magnet. RNA solutions were prepared in 50 mM NH4OAc (pH 7), mixed with 10% isopropanol to aid desolvation, and infused at a rate of 1.5 μL/min by using a syringe pump. Ions were formed in a modified electrospray source (Analytica, Branford, Conn.) by using an off-axis grounded electrospray probe positioned about 1.5 cm from the metallized terminus of the glass desolvation capillary biased at 5,000 V. A countercurrent flow of dry […] gas heated to 150° C. was used to assist in the desolvation process. Ions were accumulated in an external ion reservoir comprised of a radio frequency-only hexapole, a skimmer cone, and an auxiliary electrode for 1,000 ms before transfer into the trapped ion cell for mass analysis. Each spectrum was the result of the co-addition of 64 transients comprised of 524,288 data points acquired over a […] bandwidth, resulting in a 1.2-sec detection interval. All aspects of pulse sequence control, data acquisition, and postacquisition processing were performed by using a Bruker Daltonics data station running XMASS Version 4.0 on a Silicon Graphics (Mountain View, Calif.) R5000 computer.
RNA binding ligands are selected from a set of compounds using mass spectrometry. The RNA used for the target molecule is an RNA whose electrospray ionization properties have been optimized in conjunction with optimization of the electrospray ionization and desolvation conditions. […]

For a further data set, the system named is human CD40 mRNA. Put plainly: Inhibition of CD40 mRNA levels by oligonucleotides (real-time RT-PCR). The format is cell-based. On the set-up: concentration or dose not given beside the values. The conditions noted are these: 2'-MOE gapmers, 18 nucleotides, phosphorothioate throughout; averaged from three experiments. A digest of the protocol:
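Cells at ~80% confluency were transfected with oligonucleotide at 150 nM final using Lipofectin 3.75 μg/ml for 4 h and harvested 16 h after treatment. Poly(A)+ mRNA was taken for TaqMan real-time RT-PCR of CD40, and percent inhibition was derived from a standard curve of untreated control mRNA.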

Values joined by “and” are separate entries in the source; they are usually repeats but may differ in a detail not shown here. Identical values can stand only once. “Also recorded” adds a separate entry of the source. Oligonucleotides are written 5' to 3', each unit as a sugar letter and its base; * is a phosphorothioate linkage, no mark a phosphodiester; rarer units and linkages stand in square brackets, end groups in braces. Plain capitals give the bases only. e = 2'-O-(2-methoxyethyl) (MOE); [5mC] = 5-methylcytosine; d = 2'-deoxy (DNA)

On to “1-{2-[(3R)-4-((2S)-2-amino-3-hydroxypropanoyl)-3-methylpiperazinyl]-2-oxoethyl}-5-methyl-1,3-dihydropyrimidine-2,4-dione [IBIS-271583]”, for which, in data set [1], the “ion abundance of binary complex relative to unbound 16S RNA” value was determined as 27.8% and the “relative binding affinity from comparison of ion abundance of binary complexes” value (“relative binding affinity” below) is given as “greater affinity for 16S than either parent compound”. In data set [1] (listed as IBIS-271483), the “ion abundance of binary complex relative to unbound 16S RNA” value is on record as 52.4% and the “relative binding affinity” value was “greater affinity for the target 16S RNA than either of the parent compounds”.

Take “19278 (eT*eT*eT*eT*dG*dA*dT*dA*dA*dA*dG*dA*dC*dC*eA*eG*e[5mC]*eA; antisense) [compound 19278]”: the “% Inhibition (Inhibition of CD40 mRNA Levels by Chimeric Phosphorothioate Oligonucleotides)” value (“% Inhibition” for short) in the data set on human CD40 mRNA turned out to be 30.58%.

As for “19279 (eT*eA*eT*eT*dG*dG*dT*dT*dG*dG*dC*dT*dT*dC*eT*eT*eG*eG; antisense) [compound 19279]”, the “% Inhibition” value with human CD40 mRNA is 49.26%.

Consider “19280 (eG*eG*eG*eT*dT*dC*dC*dT*dG*dC*dT*dT*dG*dG*eG*eG*eT*eG; antisense) [compound 19280]”, for which the “% Inhibition” value with human CD40 mRNA turned out to be 13.95%.

For the compound “19281 (eG*eT*e[5mC]*eG*dG*dG*dA*dA*dA*dA*dT*dT*dG*dA*eT*e[5mC]*eT*e[5mC]; antisense) [compound 19281]”, in the data set on human CD40 mRNA, the “% Inhibition” value was 54.78%.

On to “19282 (eG*eA*eT*e[5mC]*dG*dT*dC*dG*dG*dG*dA*dA*dA*dA*eT*eT*eG*eA; antisense) [compound 19282]”, for which the “% Inhibition” value in the data set on human CD40 mRNA came out at 0.00%.

For “19283 (eG*eG*eA*eG*dC*dC*dA*dG*dG*dA*dA*dG*dA*dT*e[5mC]*eG*eT*e[5mC]; antisense) [compound 19283]”, the “% Inhibition” value in the data set with human CD40 mRNA stood at 69.47%.

On to “19284 (eT*eG*eG*eA*dG*dC*dC*dA*dG*dG*dA*dA*dG*dA*eT*e[5mC]*eG*eT; antisense) [compound 19284]”, for which, in the data set with human CD40 mRNA, the “% Inhibition” value stood at 54.48%.

For the compound “19285 (eT*eG*eG*eA*dG*dC*dA*dG*dC*dA*dG*dT*dG*dT*eT*eG*eG*eA; antisense) [compound 19285]”, the “% Inhibition” value in the data set on human CD40 mRNA was found to be 15.17%.

Consider “19286 (eG*eT*eA*eA*dA*dG*dT*dC*dT*dC*dC*dT*dG*dC*eA*e[5mC]*eT*eG; antisense) [compound 19286]”, for which, in the data set with human CD40 mRNA, the “% Inhibition” value was 30.62%.

For the compound “19288 (e[5mC]*eG*eG*eT*dT*dG*dG*dC*dA*dT*dC*dC*dA*dT*eG*eT*eA*eA; antisense) [compound 19288]”, the “% Inhibition” value with human CD40 mRNA stood at 34.49%.

“19289 (e[5mC]*eT*e[5mC]*eT*dT*dT*dG*dC*dC*dA*dT*dC*dC*dT*e[5mC]*e[5mC]*eT*eG; antisense) [compound 19289]”: in the data set on human CD40 mRNA, the “% Inhibition” value stood at 41.84%.

“19290 (e[5mC]*eT*eG*eT*dC*dT*dC*dT*dC*dC*dT*dG*dC*dA*e[5mC]*eT*eG*eA; antisense) [compound 19290]”: in the data set on human CD40 mRNA, the “% Inhibition” value amounted to 25.68%.

“19291 (eG*eG*eT*eG*dC*dA*dG*dC*dC*dT*dC*dA*dC*dT*eG*eT*e[5mC]*eT; antisense) [compound 19291]”: the “% Inhibition” value in the data set on human CD40 mRNA turned out to be 76.27%.

“19292 (eA*eA*e[5mC]*eT*dG*dC*dC*dT*dG*dT*dT*dT*dG*dC*e[5mC]*e[5mC]*eA*e[5mC]; antisense) [compound 19292]”: the “% Inhibition” value with human CD40 mRNA is given as 63.34%.

Take “19293 (e[5mC]*eT*eT*e[5mC]*dT*dG*dC*dC*dT*dG*dC*dA*dC*dC*e[5mC]*e[5mC]*eT*eG; antisense) [compound 19293]”: in the data set with human CD40 mRNA, the “% Inhibition” value came out at 0.00%.

As for “19294 (eA*e[5mC]*eT*eG*dA*dC*dT*dG*dG*dG*dC*dA*dT*dA*eG*e[5mC]*eT*e[5mC]; antisense) [compound 19294]”, in the data set on human CD40 mRNA, the “% Inhibition” value was determined as 11.55%.

Take `N[C@@H]1C[C@H](N)[C@@H](O)C(O)[C@H]1O` (stereo partly drawn) [2-DOS, 2-deoxystreptamine, reference compound]: in data set [1], the “relative binding affinity” value was “greater binding affinity for the target RNA than DT” and the “mode of binding interaction of two ligands for the target RNA” value (shortened to “mode”) is reported as “concurrent binding interaction; also recorded: cooperative binding”.

On to `NN1CN(SCc2ccccc2)C=N1` [2-amino-4-benzylthio-1,2,4-triazole], for which the “ions of ligand adduct with RNA target observed” value in data set [1] (RNA target 5 micromolar, ligand 100 micromolar, ammonium as standard ligand) is given as “also seen”.

In the case of `Nc1n[nH]c(N)n1` [DT, 3,5-diamino-1,2,4-triazole, reference compound], the “mode” value in data set [1] was “concurrent binding interaction”; in data set [1] (listed as 3,5-DT), “cooperative binding”; in data set [1] (listed as 3,5-diamino-1,2,4-triazole) it was “concurrent binding”.

In the case of `N[C@@H](CO)C(=O)N1CCNCC1` [IBIS-326611, (2S)-2-amino-3-hydroxy-1-piperazinylpropan-1-one], the “ion abundance of binary complex relative to unbound 16S RNA” value in data set [1] is 14.7% and 27.8%.

As to `Nc1cccc2nc(C3CCNCC3)[nH]c12` [Ibis-326732, 4-amino-2-piperidin-4-ylbenzimidazole], in data set [1], the “relative binding affinity” value is given as “greater affinity than glucosamine” and the “mode” value is “competitive displacement of glucosamine; also recorded: competitive binders”.

With `N[C@H]1C(O)O[C@H](CO)[C@@H](O)[C@@H]1O` (stereo partly drawn) [glucosamine, reference compound], in data set [1], the “mode” value was “competitive binders; also recorded: displaced from the RNA by addition of a benzimidazole compound”.
